Reference: patent publication US11066392B2, “Inhibitors of indoleamine 2,3-dioxygenase and methods of their use” (BRISTOL-MYERS SQUIBB COMPANY, priority 2017, dated 2021)
Like-named read-outs stand apart in the source and are kept apart here.

Target: indoleamine 2,3-dioxygenase (IDO) (Homo sapiens, UniProt P14902)
Experiment: HeLa cell-based indoleamine 2,3-dioxygenase (IDO) assay (kynurenine production, IFNγ-stimulated)
Conditions: HeLa cells
Protocol: Assessment of inhibitor activity in HeLa cell-based indoleamine 2,3-dioxygenase (IDO) assay. HeLa (ATCC® CCL-2) cells were obtained from the ATCC® and cultured in Dulbecco's Modified Eagle Medium supplemented with 4.5 g/L glucose, 4.5 […] sodium pyruvate (#10-013-CV, Corning), 2 mM L-alanyl-L-glutamine dipeptide (#35050-061, Gibco), 100U/mL penicillin, 100 μg/mL streptomycin (#SV30010, HyClone) and 10% fetal bovine serum (#SH30071.03 HyClone). Cells were maintained in a humidified incubator at 37° C. in 5% CO2. […] After 24 hours, the media was aspirated and replaced with media containing IFNγ (#285-IF/CF, R&D Systems) at a final concentration of 25 ng/mL. A serial dilution of each test compound was added to the cells in a total volume of 200 μL of culture medium. After a further 48 hour incubation, 170 μL of supernatant was transferred from each well to a fresh 96-well plate. 12.1 μL of 6.1N trichloroacetic acid (#T0699, Sigma-Aldrich) was added to each well and mixed, followed by incubation at 65° C. for 20 minutes to hydrolyze N-formylkynurenine, the product of indoleamine 2,3-dioxygenase, to kynurenine. The reaction mixture was then centrifuged for 10 mins at 500×g to sediment the precipitate. 100 μL of the supernatant was transferred from each well to a fresh 96-well plate. 100 μl of 2% (w/v) p-dimethylaminobenzaldehyde (#15647-7, Sigma-Aldrich) in acetic acid (#A6283, Sigma-Aldrich) was added to each well mixed and incubated at room temperature for 20 mins. Kynurenine concentrations were determined by measuring absorbance at 480 nm and calibrating against an L-kynurenine (#K8625, Sigma-Aldrich) standard curve using a SPECTRAMAX® M2e microplate reader (Molecular Devices). The percentage activity at each inhibitor concentration was determined and IC50 values assessed using nonlinear regression. Activity for compounds described herein is provided in Table 1, wherein potency levels are provided as follows: (Potency: IDO IC50: […])

[1] = IFNγ 25 ng/mL, 48 hour incubation, read-out: IDO Hela IC50
[2] = potency class, read-out: Patent Potency Hela IC50 A < 10 nM, B > 10 nM, C > 100 nM

Sequence of indoleamine 2,3-dioxygenase (IDO) (P14902 whole entry): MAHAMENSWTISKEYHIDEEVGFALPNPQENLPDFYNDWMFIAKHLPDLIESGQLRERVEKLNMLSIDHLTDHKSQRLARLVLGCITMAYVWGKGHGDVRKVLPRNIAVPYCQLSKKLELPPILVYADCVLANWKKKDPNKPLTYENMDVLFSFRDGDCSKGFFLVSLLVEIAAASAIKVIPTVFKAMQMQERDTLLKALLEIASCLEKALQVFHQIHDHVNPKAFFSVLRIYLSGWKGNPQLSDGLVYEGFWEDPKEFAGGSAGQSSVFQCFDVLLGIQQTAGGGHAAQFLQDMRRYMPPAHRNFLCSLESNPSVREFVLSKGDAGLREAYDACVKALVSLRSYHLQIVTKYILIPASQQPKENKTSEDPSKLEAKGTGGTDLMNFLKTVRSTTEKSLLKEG

Row | SMILES | IC50 [1] [nM] | IC50 [2] [nM]
1 | CCC(NC(=O)c1ccc(OC)nc1)C1CCC(c2cccc(C)n2)CC1 (single isomer, unassigned) [Example 46a, 6-methoxy-N-(1-(4-(6-methylpyridin-2-yl)cyclohexyl)propyl)nicotinamide] | 330 | –
2 | CCC(NC(=O)c1ccc(OC)nc1)C1CCC(c2cccc(C)n2)CC1 (single isomer, unassigned) [Example 46b, 6-methoxy-N-(1-(4-(6-methylpyridin-2-yl)cyclohexyl)propyl)nicotinamide] | – | > 100
3 | CCC(NC(=O)c1ccc(OC)nc1)C1CCC(c2cccc(C)n2)CC1 (single isomer, unassigned) [Example 46c, 6-methoxy-N-(1-(4-(6-methylpyridin-2-yl)cyclohexyl)propyl)nicotinamide] | – | > 100
4 | CCC(NC(=O)c1ccc(OC)nc1)C1CCC(c2cccc(C(F)(F)F)n2)CC1 (single isomer, unassigned) [Example 47a, 6-methoxy-N-(1-(4-(6-(trifluoromethyl)pyridin-2-yl)cyclohexyl)propyl)nicotinamide] | 180 | –
5 | CCC(NC(=O)c1ccc(OC)nc1)C1CCC(c2cccc(C(F)(F)F)n2)CC1 (single isomer, unassigned) [Example 47b, 6-methoxy-N-(1-(4-(6-(trifluoromethyl)pyridin-2-yl)cyclohexyl)propyl)nicotinamide] | – | > 100
6 | CCC(NC(=O)c1ccc(OC)nc1)C1CCC(c2cccc(C(F)(F)F)n2)CC1 (single isomer, unassigned) [Example 47c, 6-methoxy-N-(1-(4-(6-(trifluoromethyl)pyridin-2-yl)cyclohexyl)propyl)nicotinamide] | – | > 100
7 | CCC(NC(=O)c1ccc(OC)nc1)C1CCC(c2cccc(C(F)(F)F)n2)CC1 (single isomer, unassigned) [Example 47d, 6-methoxy-N-(1-(4-(6-(trifluoromethyl)pyridin-2-yl)cyclohexyl)propyl)nicotinamide] | 290 | –
8 | CCC(NC(=O)c1ccc(OC)nc1)C1CCC(c2cccc(OC(F)F)n2)CC1 (single isomer, unassigned) [Example 48a, N-(1-(4-(6-(difluoromethoxy)pyridin-2-yl)cyclohexyl)propyl)-6-methoxynicotinamide] | 360 | –
9 | CCC(NC(=O)c1ccc(OC)nc1)C1CCC(c2cccc(OC(F)F)n2)CC1 (single isomer, unassigned) [Example 48b, N-(1-(4-(6-(difluoromethoxy)pyridin-2-yl)cyclohexyl)propyl)-6-methoxynicotinamide] | – | > 100
10 | CCC(NC(=O)c1ccc(OC)nc1)C1CCC(c2cccc(OC(F)F)n2)CC1 (single isomer, unassigned) [Example 48c, N-(1-(4-(6-(difluoromethoxy)pyridin-2-yl)cyclohexyl)propyl)-6-methoxynicotinamide] | 270 | –
11 | CCC(NC(=O)c1ccc(OC)nc1)C1CCC(c2cccc(OC(F)F)n2)CC1 (single isomer, unassigned) [Example 48d, N-(1-(4-(6-(difluoromethoxy)pyridin-2-yl)cyclohexyl)propyl)-6-methoxynicotinamide] | – | > 100
12 | CCC(NC(=O)c1ccc(OC)nc1)[C@H]1CC[C@@H](c2nccc(C)n2)CC1 (single isomer, unassigned) [Example 49a, (±)-6-methoxy-N-(1-(4-(4-methylpyrimidin-2-yl)cyclohexyl)propyl)nicotinamide] | 70 | –
13 | CCC(NC(=O)c1ccc(OC)nc1)[C@H]1CC[C@@H](c2nccc(C)n2)CC1 (single isomer, unassigned) [Example 49b, (±)-6-methoxy-N-(1-(4-(4-methylpyrimidin-2-yl)cyclohexyl)propyl)nicotinamide] | 30 | –
14 | CC[C@H](NC(=O)c1ccc(OC)nc1)[C@H]1CC[C@@H](c2cncc(OC)c2)CC1 (single isomer, unassigned) [Example 50a, 6-methoxy-N-(1-(4-(5-methoxypyridin-3-yl)cyclohexyl)propyl)nicotinamide] | 990 | –
15 | CC[C@H](NC(=O)c1ccc(OC)nc1)[C@H]1CC[C@@H](c2cncc(OC)c2)CC1 (single isomer, unassigned) [Example 50b, 6-methoxy-N-(1-(4-(5-methoxypyridin-3-yl)cyclohexyl)propyl)nicotinamide] | 250 | –
16 | CC[C@H](NC(=O)c1ccc(OC)nc1)[C@H]1CC[C@@H](c2cncc(OC)c2)CC1 (single isomer, unassigned) [Example 50d, 6-methoxy-N-(1-(4-(5-methoxypyridin-3-yl)cyclohexyl)propyl)nicotinamide] | 220 | –
17 | COC[C@H](NC(=O)c1ccc(OC)nc1)[C@H]1CC[C@@H](c2ccnc(OC)c2C(F)F)CC1 (single isomer, unassigned) [Example 51a, N-(1-(4-(3-(difluoromethyl)-2-methoxypyridin-4-yl)cyclohexyl)-2-methoxyethyl)-6-methoxynicotinamide] | – | < 10
18 | COC[C@H](NC(=O)c1ccc(OC)nc1)[C@H]1CC[C@@H](c2ccnc(OC)c2C(F)F)CC1 (single isomer, unassigned) [Example 51b, N-(1-(4-(3-(difluoromethyl)-2-methoxypyridin-4-yl)cyclohexyl)-2-methoxyethyl)-6-methoxynicotinamide] | 390 | –
19 | COC[C@H](NC(=O)c1ccc(OC)nc1)[C@H]1CC[C@@H](c2ccnc(OC)c2C(F)F)CC1 (single isomer, unassigned) [Example 51c, N-(1-(4-(3-(difluoromethyl)-2-methoxypyridin-4-yl)cyclohexyl)-2-methoxyethyl)-6-methoxynicotinamide] | 220 | –
20 | COC[C@H](NC(=O)c1ccc(OC)nc1)[C@H]1CC[C@@H](c2ccnc(OC)c2C(F)F)CC1 (single isomer, unassigned) [Example 51d, N-(1-(4-(3-(difluoromethyl)-2-methoxypyridin-4-yl)cyclohexyl)-2-methoxyethyl)-6-methoxynicotinamide] | 100 | –

The next lines start with the values.

Row | IC50 [1] [nM] | IC50 [2] [nM] | SMILES
21 | 10 | – | CC[C@@H](NC(=O)c1ccc(OC)nc1)[C@H]1CC[C@@H](c2ccnc3ncccc32)CC1 (single isomer, unassigned) [Example 53a, N-(1-(4-(1,8-naphthyridin-4-yl)cyclohexyl)propyl)-6-methoxynicotinamide]
22 | 680 | – | CC[C@@H](NC(=O)c1ccc(OC)nc1)[C@H]1CC[C@@H](c2ccnc3ncccc32)CC1 (single isomer, unassigned) [Example 53b, N-(1-(4-(1,8-naphthyridin-4-yl)cyclohexyl)propyl)-6-methoxynicotinamide]
23 | – | > 100 | CC[C@@H](NC(=O)c1ccc(OC)nc1)[C@H]1CC[C@@H](c2ccnc3ncccc32)CC1 (single isomer, unassigned) [Example 53c, N-(1-(4-(1,8-naphthyridin-4-yl)cyclohexyl)propyl)-6-methoxynicotinamide]
24 | 120 | – | CC[C@@H](NC(=O)c1ccc(OC)nc1)[C@H]1CC[C@@H](c2ccnc(F)c2C)CC1 (single isomer, unassigned) [Example 56b, N-(1-(4-(2-fluoro-3-methylpyridin-4-yl)cyclohexyl)propyl)-6-methoxynicotinamide]
25 | 600 | – | CC[C@@H](NC(=O)c1ccc(OC)nc1)[C@H]1CC[C@@H](c2ccnc(F)c2C)CC1 (single isomer, unassigned) [Example 56c, N-(1-(4-(2-fluoro-3-methylpyridin-4-yl)cyclohexyl)propyl)-6-methoxynicotinamide]
26 | 830 | – | CCC(NC(=O)c1ccc(OC)nc1)C1CCC(c2ccnc3c(F)cc(F)cc23)CC1 (single isomer, unassigned) [Example 57a]
27 | – | < 10 | CCC(NC(=O)c1ccc(OC)nc1)C1CCC(c2ccnc3c(F)cc(F)cc23)CC1 (single isomer, unassigned) [Example 57b]
28 | 130 | – | CCC(NC(=O)c1ccc(OC)nc1)C1CCC(c2ccnc3c(F)cc(F)cc23)CC1 (single isomer, unassigned) [Example 57c]
29 | 40 | – | CCC(NC(=O)c1ccc(OC)nc1)C1CCC(c2ccnc3c(F)cc(F)cc23)CC1 (single isomer, unassigned) [Example 57d]
30 | 310 | – | CCC(NC(=O)c1cnc(OC)nc1)C1CCC(c2ccnc3c(F)cc(F)cc23)CC1 (single isomer, unassigned) [Example 58a]
31 | 500 | – | CCC(NC(=O)c1cnc(OC)nc1)C1CCC(c2ccnc3c(F)cc(F)cc23)CC1 (single isomer, unassigned) [Example 58b]
32 | 360 | – | CCC(NC(=O)c1cnc(OC)nc1)C1CCC(c2ccnc3c(F)cc(F)cc23)CC1 (single isomer, unassigned) [Example 58c]
